From the supplement of paper PMC10627819

Legend:
S. aureus DSM 20231 [1] = assay: fitness (endpoint OD595 vs no drug) (fraction); higher = more growth
In short: (§1)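 Volumes were 30 µl per well, or 55 µl for S. pneumoniae, in 384-well plates inoculated at OD595 0.01. Media were TSB, LB Lennox or CY at 37 °C, and OD595 was read every 30 min for 14 h with first-reading background subtraction. Fitness is the ratio of optical density at stationary-phase entry to the robust mean of no-drug controls. That ratio is capped at 1.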

S. aureus Newman [2] = assay: as above
In short: as §1

B. subtilis 168 [3] = assay: as above
In short: as §1

S. pneumoniae D39V [4] = assay: as above
In short: as §1

S. aureus DSM 20231 [5] = assay: Bliss interaction score (quartile over a dose matrix) (fitness difference); higher = more antagonism (negative = synergy)
In short: (§2)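 The Bliss score is observed minus expected fitness, where expected fitness is the product of the single-drug fitness values inferred from the combination data. Fitness is the OD595 at the onset of stationary phase over the plate's robust no-drug mean, capped at 1. Scores are summarised by quartiles over technical, biological and donor/recipient replicates.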

S. aureus Newman [6] = assay: as above
In short: as §2

B. subtilis 168 [7] = assay: as above
In short: as §2

S. pneumoniae D39V [8] = assay: as above
In short: as §2
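For Bliss interaction score (quartile over a dose matrix) in this document: first quartile when negative (synergy) and third quartile when positive (antagonism).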

CN[C@@H]1[C@H](O)[C@H](NC)[C@H]2O[C@@]3(O)C(=O)C[C@@H](C)O[C@H]3O[C@@H]2[C@H]1O [Spectinomycin] + CC1=C\[C@@H](O)CC(=O)Cc2nc(co2)C(=O)N2CCC=C2C(=O)O[C@H](C(C)C)[C@H](C)/C=C/C(=O)NC\C=C\1 [Virginiamycin M1]
fitness
Details	first compound 2 µg/mL	first compound 4 µg/mL	first compound 8 µg/mL	first compound 16 µg/mL
B. subtilis 168 [3], partner 0.0625 µg/mL	0.916	0.979	0.915	–
B. subtilis 168 [3], partner 0.125 µg/mL	0.982	0.941	0.947	–
B. subtilis 168 [3], partner 0.25 µg/mL	≥ 1	0.972	0.875	–
S. aureus DSM 20231 [1], partner 0.0625 µg/mL	–	0.933	0.993	0.809
S. aureus DSM 20231 [1], partner 0.125 µg/mL	–	≥ 1	0.896	0.83
S. aureus DSM 20231 [1], partner 0.25 µg/mL	–	0.961	0.873	0.791
S. aureus Newman [2], partner 0.0625 µg/mL	–	0.936	0.997	0.934
S. aureus Newman [2], partner 0.125 µg/mL	–	0.944	≥ 1	0.961
S. aureus Newman [2], partner 0.25 µg/mL	–	0.942	≥ 1	0.937
S. pneumoniae D39V [4], partner 0.5 µg/mL	–	0.972	0.93	–
S. pneumoniae D39V [4], partner 1 µg/mL	–	0.96	0.916	–
S. pneumoniae D39V [4], partner 2 µg/mL	–	0.931	0.889	0.8

fitness, one replicate
Details	S. aureus DSM 20231 [1]	S. aureus Newman [2]	S. pneumoniae D39V [4]
first compound 4 µg/mL, partner 0.15 µg/mL	–	–	≥ 1
first compound 4 µg/mL, partner 0.3 µg/mL	–	–	0.939
first compound 4 µg/mL, partner 0.5 µg/mL	0.769	0.839	–
first compound 4 µg/mL, partner 1 µg/mL	0.735	0.882	–
first compound 4 µg/mL, partner 2 µg/mL	–	0.769	–
first compound 8 µg/mL, partner 0.15 µg/mL	–	–	0.944
first compound 8 µg/mL, partner 0.3 µg/mL	–	–	0.927
first compound 8 µg/mL, partner 0.5 µg/mL	0.735	0.817	–
first compound 8 µg/mL, partner 1 µg/mL	0.691	0.887	–
first compound 8 µg/mL, partner 2 µg/mL	–	0.787	–
first compound 16 µg/mL, partner 0.15 µg/mL	–	–	0.894
first compound 16 µg/mL, partner 0.3 µg/mL	–	–	0.93
first compound 16 µg/mL, partner 0.5 µg/mL	0.65	0.876	0.857
first compound 16 µg/mL, partner 1 µg/mL	0.704	0.777	0.731
first compound 16 µg/mL, partner 2 µg/mL	–	0.686	–
first compound 32 µg/mL, partner 0.0625 µg/mL	0.643	0.654	–
first compound 32 µg/mL, partner 0.125 µg/mL	0.736	0.629	–
first compound 32 µg/mL, partner 0.25 µg/mL	0.637	0.602	–
first compound 64 µg/mL, partner 0.0625 µg/mL	0.0659	0.0794	–
first compound 64 µg/mL, partner 0.125 µg/mL	0.0603	0.124	–
first compound 64 µg/mL, partner 0.25 µg/mL	0.0858	0.124	–

Details	Bliss interaction score
B. subtilis 168 [7]	0.042
S. aureus DSM 20231 [5]	-0.0719
S. aureus Newman [6]	0.0692
S. pneumoniae D39V [8]	0.052
